What was measured:
Assay type in all cases: cell-based
KRas^G12C [1] = target: T1, KRas^G12C (Homo sapiens, UniProt P01116, G12C); assay: Western blot mobility shift of KRas after treating cells with bifunctional compound (FIGS. 2A and 2B)
T1 construct: endogenous in cells
Text: FIGS. 2A and 2B show the result of treating cells with either a bifunctional compound alone or a bifunctional compound and an E3 ubiquitin ligase inhibitor, and then detecting the KRas protein on the gel. The mobility shift of KRas detection on the gel illustrates that the bifunctional compounds covalently modify KRas. The upper band is KRas and the bifunctional compound, while the lower band is KRas alone.

KRas [2] = target: T2, KRas (Homo sapiens, UniProt P01116, G12C); assay: KRas degradation in SW1573 cells by Western blot, normalized to GAPDH (data of Table 14); conditions: SW1573 cells
Procedure, shortened: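 SW1573 cells, homozygous for the KRas G12C mutation and maintained in DMEM with 10% FBS and 1% penicillin-streptomycin, were seeded in 12-well plates, allowed to attach overnight at 37° C. under 5% CO2, then serum-starved for 24 hours before compound exposure. KRas levels were measured by Western blot, normalized to GAPDH, and compared with DMSO controls to give percent degradation, DC50 and Dmax.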

KRas^G12C [3] = target: T1, KRas^G12C; assay: Western blot of KRas G12C degradation and gel shift (FIGS. 2A and 2B)
KRas [4] = target: T2, KRas; assay: KRas degradation in H2030 cells by Western blot (data of Table 5); parameters: host or cells: NCI-H2030; conditions: H2030 cells serum starved 24 hours, KRas immunoblot; for H2030 Degradation at 0.3 uM: treated 24 hours with 0.3 uM; for H2030 Degradation at 1 uM: treated 24 hours with 1 uM; for H2030 Degradation at 3 uM: treated 24 hours with 3 uM
Method: Cell Lines, Antibodies, and Reagents. NCI-H2030 (CRL-5914) and SW1573 (CRL-2170) cells were purchased from ATCC. Both cell lines are homozygous for the G12C mutation in KRas. NCI-H2030 cells were cultured in RPMI-1640 medium containing 1% penicillin-streptomycin and 10% fetal bovine serum (FBS). SW1573 cells were cultured in DMEM containing 1% penicillin-streptomycin and 10% FBS. The KRas detection antibody (Cat. No. LS-C175665) was purchased from LifeSpan Biosciences and was used at a dilution of 1:2000. GAPDH was detected using an antibody purchased from Cell Signaling Technology (Cat. No. 5174) and was diluted 1:3000. Secondary anti-mouse and anti-rabbit detection antibodies were purchased from Cell Signaling Technology (Cat. Nos. 7076 and 7074, respectively).
Compound Treatment and Western Blotting of the Data of Table 5. H2030 cells in 12-well plates were serum starved for 24 hours, and then treated with 0.3 uM, 1 uM, and 3 uM of the indicated bifunctional compound, for 24 hours. Cells were lysed in a Cell Signaling Technology Cell Lysis Buffer (Cat. No. #9803) supplemented with protease inhibitors, and proteins were separated by SDS-PAGE. KRas was detected by immunoblotting using the LSBio antibody (Cat. No. LS-C175665).
DC50 is the half-maximal degradation concentration—i.e., the concentration at which 50% degradation is observed. DMax is the maximum degradation efficacy is achieved—i.e., the maximal degradation observed) degradation data.

SMILES	KRas degrader activity (representative Western blot) (KRas^G12C [1]; FIG. 2A / FIG. 2B)	covalent modification of KRas seen by gel shift (KRas^G12C [1]; upper band is KRas and the bifunctional compound, lower band is KRas alone)	Percent Degradation at Indicated Concentration (μM) (KRas [2]; 0.1 μM)	Percent Degradation at Indicated Concentration (μM) (KRas [2]; 0.3 μM)	Percent Degradation at Indicated Concentration (μM) (KRas [2]; 1 μM)	covalent modification of KRas^G12C, as seen by the gel shift (KRas^G12C [3]; Western blot gel shift, FIGS. 2A and 2B)	degrader potency shown by Western blot (KRas^G12C [3]; Western blot, FIG. 2A / FIG. 2B)	H2030 Degradation at 0.3 uM (KRas [4])	H2030 Degradation at 1 uM (KRas [4])	H2030 Degradation at 3 uM (KRas [4])
CCC(=O)N1CCN(c2nc(NCCC(=O)N(C)CCOCCOCCOCCOCCOc3ccc4c(c3)CN(C3CCC(=O)NC3=O)C4=O)nc3c(F)c(-c4cc(O)cc5ccccc45)c(Cl)cc23)CC1 (stereo not shown) [compound 10, 3-((6-chloro-8-fluoro-7-(3-hydroxynaphthalen-1-yl)-4-(4-propionylpiperazin-1-yl)quinazolin-2-yl)amino)-N-(14-((2-(2,6-dioxopiperidin-3-yl)-1-oxoisoindolin-5-yl)oxy)-3,6,9,12-tetraoxatetradecyl)-N-methylpropanamide]	–	–	–	–	–	–	–	C (C < 25)	C (C < 25)	C (C < 25)
C=CC(=O)N1CCN(c2nc(NCCC(=O)N(C)CCOCCOCCOCCOCCOCC(=O)N[C@H](C(=O)N3C[C@H](O)C[C@H]3C(=O)N[C@@H](C)c3ccc(-c4scnc4C)cc3)C(C)(C)C)nc3c(F)c(-c4cc(O)cc5ccccc45)c(Cl)cc23)CC1 [compound 2, (2S,4R)-1-((2S)-24-((4-(4-acryloylpiperazin-1-yl)-6-chloro-8-fluoro-7-(3-hydroxynaphthalen-1-yl)quinazolin-2-yl)amino)-2-(tert-butyl)-21-methyl-4,22-dioxo-6,9,12,15,18-pentaoxa-3,21-diazatetracosanoyl)-4-hydroxy-N-((S)-1-(4-(4-methylthiazol-5-yl)phenyl)ethyl) pyrrolidine-2-carboxamide]	–	–	–	–	–	–	–	C (C < 25)	A (A ≥ 50)	A (A ≥ 50)
CCC(=O)N1CCN(c2nc(NCCC(=O)N(C)CCOCCOCCOCCOCC(=O)N[C@H](C(=O)N3C[C@H](O)C[C@H]3C(=O)N[C@@H](C)c3ccc(-c4scnc4C)cc3)C(C)(C)C)nc3c(F)c(-c4cc(O)cc5ccccc45)c(Cl)cc23)CC1 [compound 6, (2S,4R)-1-((2S)-2-(tert-butyl)-21-((6-chloro-8-fluoro-7-(3-hydroxynaphthalen-1-yl)-4-(4-propionylpiperazin-1-yl)quinazolin-2-yl)amino)-18-methyl-4,19-dioxo-6,9,12,15-tetraoxa-3,18-diazahenicosanoyl)-4-hydroxy-N-((S)-1-(4-(4-methylthiazol-5-yl)phenyl)ethyl) pyrrolidine-2-carboxamide]	–	–	–	–	–	–	–	C (C < 25)	C (C < 25)	C (C < 25)
C=CC(=O)N1CCN(c2nc(NCCC(=O)N(C)CCOCCOCCOCCOCCOc3ccc4c(c3)CN(C3CCC(=O)NC3=O)C4=O)nc3c(F)c(-c4cc(O)cc5ccccc45)c(Cl)cc23)CC1 (stereo not shown) [compound 5, 3-((4-(4-acryloylpiperazin-1-yl)-6-chloro-8-fluoro-7-(3-hydroxynaphthalen-1-yl)quinazolin-2-yl)amino)-N-(14-((2-(2,6-dioxopiperidin-3-yl)-1-oxoisoindolin-5-yl)oxy)-3,6,9,12-tetraoxatetradecyl)-N-methylpropanamide]	–	–	–	–	–	–	–	C (C < 25)	B (25 ≤ B < 50)	B (25 ≤ B < 50)
C=CC(=O)N1CCN(c2nc(NCCC(=O)N(C)CCOCCOCCOCCOCC(=O)N[C@H](C(=O)N3C[C@H](O)C[C@H]3C(=O)N[C@@H](C)c3ccc(-c4scnc4C)cc3)C(C)(C)C)nc3c(F)c(-c4cc(O)cc5ccccc45)c(Cl)cc23)CC1 [compound 1, (2S,4R)-1-((2S)-21-((4-(4-acryloylpiperazin-1-yl)-6-chloro-8-fluoro-7-(3-hydroxynaphthalen-1-yl)quinazolin-2-yl)amino)-2-(tert-butyl)-18-methyl-4,19-dioxo-6,9,12,15-tetraoxa-3,18-diazahenicosanoyl)-4-hydroxy-N-((S)-1-(4-(4-methylthiazol-5-yl)phenyl)ethyl) pyrrolidine-2-carboxamide]	–	–	–	–	–	–	–	C (C < 25)	A (A ≥ 50)	A (A ≥ 50)

Results, then the molecule that gave them:

KRas degrader activity (representative Western blot) (KRas^G12C [1]; FIG. 2A / FIG. 2B)	covalent modification of KRas seen by gel shift (KRas^G12C [1]; upper band is KRas and the bifunctional compound, lower band is KRas alone)	Percent Degradation at Indicated Concentration (μM) (KRas [2]; 0.1 μM)	Percent Degradation at Indicated Concentration (μM) (KRas [2]; 0.3 μM)	Percent Degradation at Indicated Concentration (μM) (KRas [2]; 1 μM)	covalent modification of KRas^G12C, as seen by the gel shift (KRas^G12C [3]; Western blot gel shift, FIGS. 2A and 2B)	degrader potency shown by Western blot (KRas^G12C [3]; Western blot, FIG. 2A / FIG. 2B)	H2030 Degradation at 0.3 uM (KRas [4])	H2030 Degradation at 1 uM (KRas [4])	H2030 Degradation at 3 uM (KRas [4])	SMILES
less active degrader	covalently modify KRas^G12C	C (Percent Degradation: C ≤ 35)	C (Percent Degradation: C ≤ 35)	C (Percent Degradation: C ≤ 35)	covalently modify KRas^G12C	less potent degrader	–	–	–	C=CC(=O)N1CCN(c2nc(O[C@H](C)CN3CCN(CC4CCN(c5ccc6c(c5)C(=O)N(C5CCC(=O)NC5=O)C6=O)CC4)CC3)nc3c(F)c(-c4cc(O)cc5ccccc45)c(Cl)cc23)CC1 (stereo partly drawn) [compound 432, 5-(4-((4-((2R)-2-((4-(4-acryloylpiperazin-1-yl)-6-chloro-8-fluoro-7-(3-hydroxynaphthalen-1-yl)quinazolin-2-yl)oxy)propyl)piperazin-1-yl)methyl)piperidin-1-yl)-2-(2,6-dioxopiperidin-3-yl)isoindoline-1,3-dione]
–	–	–	–	–	–	–	C (C < 25)	C (C < 25)	C (C < 25)	CCC(=O)N1CCN(c2nc(NCCC(=O)N(C)CCOCCOCCOCCOCCOCC(=O)N[C@H](C(=O)N3C[C@H](O)C[C@H]3C(=O)N[C@@H](C)c3ccc(-c4scnc4C)cc3)C(C)(C)C)nc3c(F)c(-c4cc(O)cc5ccccc45)c(Cl)cc23)CC1 [compound 7, (2S,4R)-1-((2S)-2-(tert-butyl)-24-((6-chloro-8-fluoro-7-(3-hydroxynaphthalen-1-yl)-4-(4-propionylpiperazin-1-yl)quinazolin-2-yl)amino)-21-methyl-4,22-dioxo-6,9,12,15,18-pentaoxa-3,21-diazatetracosanoyl)-4-hydroxy-N-((1S)-1-(4-(4-methyl-5H-114-thiazol-5-yl)phenyl)ethyl) pyrrolidine-2-carboxamide]

— patent publication US12552783B2, “Modulators of proteolysis and associated methods of use” (Arvinas Operations, Inc., priority 2018, dated 2026)
